Laboratory results: the kinase profiling compilation of Christmann-Franck et al. (2016)

What was measured:
Assay in all cases: radiometric filter-binding kinase assay
[1] = target: ERBB4 (human) (UniProt Q15303)
[2] = target: MKNK1 (human) (UniProt Q9BUB5)
[3] = target: HIPK3 (human) (UniProt Q9H422)
[4] = target: EPHA4 (human) (UniProt P54764)
[5] = target: MARK2 (human) (UniProt Q7KZI7)
[6] = target: INSRR (human) (UniProt P14616)
[7] = target: NEK6 (human) (UniProt Q9HC98)
[8] = target: BRSK1 (human) (UniProt Q8TDC3)
[9] = target: MAPK15 (human) (UniProt Q8TD08)
MAPK15 (human), sequence (Q8TD08 whole entry, looked up): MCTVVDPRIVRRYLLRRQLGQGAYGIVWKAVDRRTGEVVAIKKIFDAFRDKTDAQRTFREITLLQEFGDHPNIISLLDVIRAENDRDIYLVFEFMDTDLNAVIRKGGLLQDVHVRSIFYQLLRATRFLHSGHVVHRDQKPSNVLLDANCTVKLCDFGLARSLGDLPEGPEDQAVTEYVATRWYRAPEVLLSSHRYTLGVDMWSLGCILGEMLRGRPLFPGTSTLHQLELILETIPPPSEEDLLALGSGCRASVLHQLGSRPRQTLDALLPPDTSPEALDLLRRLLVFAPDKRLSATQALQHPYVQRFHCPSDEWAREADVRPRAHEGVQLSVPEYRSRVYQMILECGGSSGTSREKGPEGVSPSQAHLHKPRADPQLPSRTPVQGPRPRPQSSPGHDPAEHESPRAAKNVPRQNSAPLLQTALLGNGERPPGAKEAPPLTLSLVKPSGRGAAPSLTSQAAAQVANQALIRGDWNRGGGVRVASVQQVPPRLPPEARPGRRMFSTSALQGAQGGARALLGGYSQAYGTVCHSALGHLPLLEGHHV

[10] = target: INSR (human) (UniProt P06213)
[11] = target: MAP2K1 (human) (UniProt Q02750)
[12] = target: MAPKAPK2 (human) (UniProt P49137)
MAPKAPK2 (human), sequence (P49137 whole entry, looked up): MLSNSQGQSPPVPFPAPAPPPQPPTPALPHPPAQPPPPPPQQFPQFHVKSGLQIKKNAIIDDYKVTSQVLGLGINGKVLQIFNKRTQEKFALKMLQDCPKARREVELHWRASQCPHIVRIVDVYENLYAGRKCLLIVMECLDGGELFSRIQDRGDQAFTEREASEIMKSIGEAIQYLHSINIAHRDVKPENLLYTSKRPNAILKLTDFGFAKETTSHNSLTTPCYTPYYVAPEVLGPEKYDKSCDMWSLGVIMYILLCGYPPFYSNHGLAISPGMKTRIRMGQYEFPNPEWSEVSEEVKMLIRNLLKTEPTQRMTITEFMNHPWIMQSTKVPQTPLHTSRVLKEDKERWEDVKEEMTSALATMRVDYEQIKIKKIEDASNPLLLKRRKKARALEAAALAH

[13] = target: MST4 (human) (UniProt Q9P289)
[14] = target: RIPK2 (human) (UniProt O43353)
[15] = target: CSK (human) (UniProt P41240)
CSK (human), sequence (P41240 whole entry, looked up): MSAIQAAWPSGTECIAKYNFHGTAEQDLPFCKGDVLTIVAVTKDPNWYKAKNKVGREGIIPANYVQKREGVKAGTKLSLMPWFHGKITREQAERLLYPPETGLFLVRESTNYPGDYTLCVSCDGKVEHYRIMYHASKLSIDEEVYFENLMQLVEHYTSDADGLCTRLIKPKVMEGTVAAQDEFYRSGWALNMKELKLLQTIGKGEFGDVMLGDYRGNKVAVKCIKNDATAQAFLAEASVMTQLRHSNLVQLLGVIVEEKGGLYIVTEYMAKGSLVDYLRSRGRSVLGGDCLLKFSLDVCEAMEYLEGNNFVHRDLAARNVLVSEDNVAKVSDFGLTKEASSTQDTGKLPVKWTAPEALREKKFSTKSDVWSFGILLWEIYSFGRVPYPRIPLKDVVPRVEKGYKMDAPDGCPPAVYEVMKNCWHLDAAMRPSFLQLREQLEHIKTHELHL

[16] = target: JAK2 JH1 JH2 (human) (UniProt O60674)
[17] = target: PRKACA (human) (UniProt P17612)
[18] = target: PAK7 (human) (UniProt Q9P286)
[19] = target: NUAK1 (human) (UniProt O60285)
[20] = target: DYRK2 (human) (UniProt Q92630)
[21] = target: PRKCA (human) (UniProt P17252)
[22] = target: MINK1 (human) (UniProt Q8N4C8)
[23] = target: NEK2 (human) (UniProt P51955)
NEK2 (human), sequence (P51955 whole entry, looked up): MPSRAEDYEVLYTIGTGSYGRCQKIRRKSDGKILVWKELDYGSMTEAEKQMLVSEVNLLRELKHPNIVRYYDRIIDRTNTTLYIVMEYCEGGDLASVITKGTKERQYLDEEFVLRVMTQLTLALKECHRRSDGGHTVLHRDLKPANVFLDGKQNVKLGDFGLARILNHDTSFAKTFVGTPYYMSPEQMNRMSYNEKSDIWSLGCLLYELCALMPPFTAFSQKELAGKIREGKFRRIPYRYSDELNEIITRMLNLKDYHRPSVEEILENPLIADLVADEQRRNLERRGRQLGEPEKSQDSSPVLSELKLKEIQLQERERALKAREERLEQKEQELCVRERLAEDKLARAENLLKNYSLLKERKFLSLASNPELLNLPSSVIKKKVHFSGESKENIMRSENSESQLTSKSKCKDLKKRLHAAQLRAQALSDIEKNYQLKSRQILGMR

[24] = target: CAMKK2 (human) (UniProt Q96RR4)
[25] = target: SRPK1 (human) (UniProt Q96SB4)
[26] = target: RPS6KA5 KD1 KD2 (human) (UniProt O75582)
RPS6KA5 KD1 KD2 (human), sequence (O75582 whole entry, looked up): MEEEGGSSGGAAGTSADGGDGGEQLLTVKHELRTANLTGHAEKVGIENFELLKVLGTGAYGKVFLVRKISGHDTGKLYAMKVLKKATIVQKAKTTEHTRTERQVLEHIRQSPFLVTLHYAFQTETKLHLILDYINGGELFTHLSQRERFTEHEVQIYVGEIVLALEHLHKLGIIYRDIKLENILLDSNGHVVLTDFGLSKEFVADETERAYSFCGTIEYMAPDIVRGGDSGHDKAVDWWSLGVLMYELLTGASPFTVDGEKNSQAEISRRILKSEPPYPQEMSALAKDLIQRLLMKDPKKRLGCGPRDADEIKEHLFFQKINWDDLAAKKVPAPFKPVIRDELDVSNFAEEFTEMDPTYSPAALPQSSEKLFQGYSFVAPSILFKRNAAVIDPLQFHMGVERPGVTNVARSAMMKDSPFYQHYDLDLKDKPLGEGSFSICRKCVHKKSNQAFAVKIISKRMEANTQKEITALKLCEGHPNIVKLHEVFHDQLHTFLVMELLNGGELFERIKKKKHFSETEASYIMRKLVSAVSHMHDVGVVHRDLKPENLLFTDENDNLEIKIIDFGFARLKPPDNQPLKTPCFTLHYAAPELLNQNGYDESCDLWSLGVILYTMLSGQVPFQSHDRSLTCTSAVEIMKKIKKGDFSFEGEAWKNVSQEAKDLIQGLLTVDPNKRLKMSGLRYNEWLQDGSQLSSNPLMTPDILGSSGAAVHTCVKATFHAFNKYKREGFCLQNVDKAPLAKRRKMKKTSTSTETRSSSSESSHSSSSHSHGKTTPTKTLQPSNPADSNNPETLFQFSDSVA

[27] = system: LCK (mouse); conditions: accession and sequence are those of the human protein
[28] = target: EPHA2 (human) (UniProt P29317)
[29] = target: EPHB2 (human) (UniProt P29323)
[30] = target: CDK2 CCNA2 (human) (UniProt P20248+P24941)
[31] = target: MARK1 (human) (UniProt Q9P0L2)
[32] = target: CaMK1 (human) (UniProt Q14012)
CaMK1 (human), sequence (Q14012 whole entry, looked up): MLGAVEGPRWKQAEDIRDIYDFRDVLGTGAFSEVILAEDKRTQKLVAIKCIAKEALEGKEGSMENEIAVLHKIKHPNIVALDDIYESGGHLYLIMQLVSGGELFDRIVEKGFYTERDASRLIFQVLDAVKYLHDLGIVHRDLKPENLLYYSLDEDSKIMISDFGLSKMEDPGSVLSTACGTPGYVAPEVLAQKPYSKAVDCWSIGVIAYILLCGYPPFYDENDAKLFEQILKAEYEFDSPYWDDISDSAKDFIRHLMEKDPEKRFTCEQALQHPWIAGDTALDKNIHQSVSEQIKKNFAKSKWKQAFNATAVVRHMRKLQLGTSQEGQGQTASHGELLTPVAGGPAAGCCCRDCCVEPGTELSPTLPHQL

[33] = target: PHKG1 (human) (UniProt Q16816)
[34] = target: BTK (human) (UniProt Q06187)
BTK (human), sequence (Q06187 whole entry, looked up): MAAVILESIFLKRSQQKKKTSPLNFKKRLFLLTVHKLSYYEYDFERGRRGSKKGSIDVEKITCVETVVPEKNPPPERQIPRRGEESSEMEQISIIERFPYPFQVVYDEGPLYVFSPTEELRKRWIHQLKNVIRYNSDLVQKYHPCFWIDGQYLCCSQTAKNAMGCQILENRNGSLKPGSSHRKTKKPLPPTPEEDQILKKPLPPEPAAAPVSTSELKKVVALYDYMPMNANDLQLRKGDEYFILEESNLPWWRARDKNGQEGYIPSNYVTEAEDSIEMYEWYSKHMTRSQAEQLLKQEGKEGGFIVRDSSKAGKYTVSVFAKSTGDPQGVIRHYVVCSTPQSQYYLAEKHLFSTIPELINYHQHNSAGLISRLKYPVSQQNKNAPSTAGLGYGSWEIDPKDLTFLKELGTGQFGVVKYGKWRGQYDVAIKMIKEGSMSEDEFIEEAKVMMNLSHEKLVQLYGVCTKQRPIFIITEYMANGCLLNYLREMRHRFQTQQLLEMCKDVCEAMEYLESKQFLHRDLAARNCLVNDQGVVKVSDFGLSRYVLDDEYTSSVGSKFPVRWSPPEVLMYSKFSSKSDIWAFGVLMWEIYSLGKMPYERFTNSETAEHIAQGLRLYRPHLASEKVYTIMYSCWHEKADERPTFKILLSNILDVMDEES

[35] = system: PRKAA1 or PRKAA2 (rat); conditions: accession and sequence are those of the human protein

MARK2 (human), sequence (Q7KZI7 whole entry, looked up): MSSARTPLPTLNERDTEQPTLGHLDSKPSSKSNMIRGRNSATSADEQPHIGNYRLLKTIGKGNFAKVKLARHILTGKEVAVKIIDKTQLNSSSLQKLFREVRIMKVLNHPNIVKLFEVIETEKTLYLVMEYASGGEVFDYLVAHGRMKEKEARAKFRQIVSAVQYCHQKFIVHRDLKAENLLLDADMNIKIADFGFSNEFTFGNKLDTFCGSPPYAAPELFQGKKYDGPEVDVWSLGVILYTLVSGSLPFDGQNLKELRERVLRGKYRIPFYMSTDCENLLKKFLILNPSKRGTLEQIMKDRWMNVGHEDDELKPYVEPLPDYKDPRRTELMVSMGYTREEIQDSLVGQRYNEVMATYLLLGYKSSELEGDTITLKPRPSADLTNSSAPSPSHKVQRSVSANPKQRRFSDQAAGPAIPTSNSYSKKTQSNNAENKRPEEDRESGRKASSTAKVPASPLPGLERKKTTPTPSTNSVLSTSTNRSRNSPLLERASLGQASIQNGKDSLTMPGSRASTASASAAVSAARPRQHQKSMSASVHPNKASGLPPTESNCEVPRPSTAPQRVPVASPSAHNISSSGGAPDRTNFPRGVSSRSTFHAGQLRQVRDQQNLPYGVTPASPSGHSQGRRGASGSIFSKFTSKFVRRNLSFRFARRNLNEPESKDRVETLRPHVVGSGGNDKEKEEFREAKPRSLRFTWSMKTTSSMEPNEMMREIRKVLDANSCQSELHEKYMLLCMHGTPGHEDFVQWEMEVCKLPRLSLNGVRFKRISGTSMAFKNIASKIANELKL
MKNK1 (human), sequence (Q9BUB5 whole entry, looked up): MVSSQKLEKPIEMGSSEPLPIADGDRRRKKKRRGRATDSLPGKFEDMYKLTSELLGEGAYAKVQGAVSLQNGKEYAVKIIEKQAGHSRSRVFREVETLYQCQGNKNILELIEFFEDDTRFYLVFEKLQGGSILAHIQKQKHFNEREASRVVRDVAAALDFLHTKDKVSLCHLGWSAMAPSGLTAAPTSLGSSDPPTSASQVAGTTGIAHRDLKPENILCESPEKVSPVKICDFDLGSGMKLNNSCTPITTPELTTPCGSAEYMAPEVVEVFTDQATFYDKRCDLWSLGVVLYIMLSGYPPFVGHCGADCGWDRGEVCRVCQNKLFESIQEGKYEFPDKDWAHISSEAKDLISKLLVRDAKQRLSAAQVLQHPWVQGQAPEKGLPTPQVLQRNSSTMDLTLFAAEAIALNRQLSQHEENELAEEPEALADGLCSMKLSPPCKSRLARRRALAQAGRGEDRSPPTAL

## NC1(c2ccc(-c3nc4ccn5c(=O)[nH]nc5c4cc3-c3ccccc3)cc2)CCC1
[1]; compound 0.1 µM
  residual activity: 111%
[1]; compound 1.0 µM
  residual activity: 95%
[2]; compound 0.1 µM
  residual activity: 105%
[2]; compound 1.0 µM
  residual activity: 104%
[2]; compound 10.0 µM
  residual activity: 58%
[3]; compound 0.1 µM
  residual activity: 117%
[3]; compound 1.0 µM
  residual activity: 100%
[3]; compound 10.0 µM
  residual activity: 100%
[4]; compound 0.1 µM
  residual activity: 107%
[4]; compound 1.0 µM
  residual activity: 116%
[4]; compound 10.0 µM
  residual activity: 97%
[5]; compound 0.1 µM
  residual activity: 102%
[5]; compound 1.0 µM
  residual activity: 97%
[5]; compound 10.0 µM
  residual activity: 94%
[6]; compound 0.1 µM
  residual activity: 95%
[6]; compound 1.0 µM
  residual activity: 80%
[6]; compound 10.0 µM
  residual activity: 61%
[7]; compound 0.1 µM
  residual activity: 106%
[7]; compound 1.0 µM
  residual activity: 98%
[7]; compound 10.0 µM
  residual activity: 90%
[8]; compound 0.1 µM
  residual activity: 115%
[8]; compound 1.0 µM
  residual activity: 112%
[8]; compound 10.0 µM
  residual activity: 87%
[9]; compound 0.1 µM
  residual activity: 106%
[9]; compound 1.0 µM
  residual activity: 89%
[9]; compound 10.0 µM
  residual activity: 93%
[10]; compound 1.0 µM
  residual activity: 79%
[10]; compound 10.0 µM
  residual activity: 83%
[11]; compound 0.1 µM
  residual activity: 83%
[11]; compound 1.0 µM
  residual activity: 72%
[11]; compound 10.0 µM
  residual activity: 90%
[12]; compound 0.1 µM
  residual activity: 99%
[12]; compound 1.0 µM
  residual activity: 110%
[12]; compound 10.0 µM
  residual activity: 88%
[13]; compound 0.1 µM
  residual activity: 95%
[13]; compound 1.0 µM
  residual activity: 103%
[13]; compound 10.0 µM
  residual activity: 105%
[14]; compound 0.1 µM
  residual activity: 101%
[14]; compound 1.0 µM
  residual activity: 84%
[14]; compound 10.0 µM
  residual activity: 38%
[15]; compound 0.1 µM
  residual activity: 92%
[15]; compound 1.0 µM
  residual activity: 91%
[15]; compound 10.0 µM
  residual activity: 85%
[16]; compound 1.0 µM
  residual activity: 84%
[16]; compound 10.0 µM
  residual activity: 94%
[17]; compound 0.1 µM
  residual activity: 104%
[17]; compound 1.0 µM
  residual activity: 91%
[17]; compound 10.0 µM
  residual activity: 90%
[18]; compound 0.1 µM
  residual activity: 101%
[18]; compound 1.0 µM
  residual activity: 96%
[18]; compound 10.0 µM
  residual activity: 75%
[19]; compound 0.1 µM
  residual activity: 101%
[19]; compound 1.0 µM
  residual activity: 102%
[20]; compound 0.1 µM
  residual activity: 96%
[20]; compound 1.0 µM
  residual activity: 96%
[20]; compound 10.0 µM
  residual activity: 87%
[21]; compound 0.1 µM
  residual activity: 97%
[21]; compound 1.0 µM
  residual activity: 94%
[21]; compound 10.0 µM
  residual activity: 98%
[22]; compound 0.1 µM
  residual activity: 106%
[22]; compound 1.0 µM
  residual activity: 86%
[22]; compound 10.0 µM
  residual activity: 69%
[23]; compound 0.1 µM
  residual activity: 95%
[23]; compound 1.0 µM
  residual activity: 87%
[23]; compound 10.0 µM
  residual activity: 87%
[24]; compound 0.1 µM
  residual activity: 92%
[24]; compound 1.0 µM
  residual activity: 99%
[24]; compound 10.0 µM
  residual activity: 84%
[25]; compound 0.1 µM
  residual activity: 107%
[25]; compound 1.0 µM
  residual activity: 106%
[25]; compound 10.0 µM
  residual activity: 116%
[26]; compound 0.1 µM
  residual activity: 84%
[26]; compound 1.0 µM
  residual activity: 90%
[26]; compound 10.0 µM
  residual activity: 76%
[27]; compound 0.1 µM
  residual activity: 106%
[27]; compound 1.0 µM
  residual activity: 112%
[27]; compound 10.0 µM
  residual activity: 80%
[28]; compound 0.1 µM
  residual activity: 86%
[28]; compound 1.0 µM
  residual activity: 95%
[28]; compound 10.0 µM
  residual activity: 87%
[29]; compound 0.1 µM
  residual activity: 107%
[29]; compound 1.0 µM
  residual activity: 93%
[29]; compound 10.0 µM
  residual activity: 74%
[30]; compound 0.1 µM
  residual activity: 100%
[30]; compound 1.0 µM
  residual activity: 84%
[30]; compound 10.0 µM
  residual activity: 75%
[31]; compound 0.1 µM
  residual activity: 113%
[31]; compound 1.0 µM
  residual activity: 88%
[31]; compound 10.0 µM
  residual activity: 98%
[32]; compound 0.1 µM
  residual activity: 108%
[32]; compound 1.0 µM
  residual activity: 87%
[32]; compound 10.0 µM
  residual activity: 35%
[33]; compound 0.1 µM
  residual activity: 109%
[33]; compound 1.0 µM
  residual activity: 98%
[33]; compound 10.0 µM
  residual activity: 68%
[34]; compound 0.1 µM
  residual activity: 87%
[34]; compound 1.0 µM
  residual activity: 96%
[34]; compound 10.0 µM
  residual activity: 99%
[35]; compound 0.1 µM
  residual activity: 98%
[35]; compound 1.0 µM
  residual activity: 85%
[35]; compound 10.0 µM
  residual activity: 83%
